These results are taken from patent publication US20250368666A1, “INDAZOLE COMPOUNDS” (TYRA BIOSCIENCES, INC., priority 2022, published 2025).

The test system of assay [1] is KG-1 cell line (FGFR 1-fusion). Put plainly: Cancer cell line cell viability assay (Cell Titer-Glo), 72 hr. It is filed as cell-based. Particulars: Homo sapiens. Summed up: (§1)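 ATP-based luminescence (Cell Titer-Glo 2.0) measured viability after 72 h (KG-1, RT112/84) or 120 h (MDA-MB-453, HuH7) compound exposure. Dosing was nine 4-fold steps starting at 3 μM, in triplicate, on overnight-plated cells. IC50 came from a variable-slope 4-parameter fit of % DMSO control.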

The test system of assay [2] is RT112/84 cell line (FGFR3-fusion). The assay is described as above. The class given is cell-based. Particulars: Homo sapiens. An outline of the steps: as §1
The subject of assay [3] is KATO-III cell line (FGFR2 amplification). The description is as above. It is filed as cell-based. Particulars: Homo sapiens. An outline of the steps: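 Luminescent ATP read-out (Cell Titer-Glo 2.0) after compound exposure, normalised to DMSO-only wells. Dosing: 9 concentrations, 4-fold steps, top 3 μM, triplicates. IC50 derived by log(inhibitor) vs. response 4-parameter fit.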

In another assay the target is T1, FGFR3 (Homo sapiens, UniProt P22607).
T1 construct: made in house; host or cells: E. coli (BL21-derived), T7 phage
T1 sequence (P22607 23-806): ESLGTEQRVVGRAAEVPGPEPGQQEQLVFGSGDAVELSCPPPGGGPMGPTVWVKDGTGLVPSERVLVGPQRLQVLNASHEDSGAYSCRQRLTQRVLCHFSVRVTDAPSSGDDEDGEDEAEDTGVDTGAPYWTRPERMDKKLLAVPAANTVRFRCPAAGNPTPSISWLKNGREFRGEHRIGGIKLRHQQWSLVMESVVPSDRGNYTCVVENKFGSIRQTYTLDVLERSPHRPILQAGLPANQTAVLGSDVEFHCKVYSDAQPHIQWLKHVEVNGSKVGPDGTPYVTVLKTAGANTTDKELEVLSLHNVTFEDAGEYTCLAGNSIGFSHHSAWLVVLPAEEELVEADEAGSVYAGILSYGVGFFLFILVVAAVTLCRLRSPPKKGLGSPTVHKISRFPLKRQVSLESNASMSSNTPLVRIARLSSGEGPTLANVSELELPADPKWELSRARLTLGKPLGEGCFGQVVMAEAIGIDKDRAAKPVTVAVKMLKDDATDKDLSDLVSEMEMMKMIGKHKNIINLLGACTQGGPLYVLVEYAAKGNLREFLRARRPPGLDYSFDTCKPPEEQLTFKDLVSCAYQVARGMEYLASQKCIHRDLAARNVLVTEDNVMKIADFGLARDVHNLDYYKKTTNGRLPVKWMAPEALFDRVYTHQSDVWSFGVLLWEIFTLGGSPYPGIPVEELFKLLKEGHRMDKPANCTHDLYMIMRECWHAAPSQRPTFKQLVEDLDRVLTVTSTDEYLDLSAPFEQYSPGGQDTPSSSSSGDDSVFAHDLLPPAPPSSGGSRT
The assay is described as follows: Kinase binding assay (kinase-tagged T7 phage, affinity beads, qPCR), Kd. Particulars: for Kd: read-out: FGFR3 (Kd nM). Summed up: (§2)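 Competition binding of compounds against kinase-tagged T7 phage captured on immobilised biotinylated ligand beads; bead-bound kinase quantified by qPCR of eluates. 11-point 3-fold dilution, 0.9% DMSO final; Kd from Hill fit with slope fixed at −1.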

Another assay addresses T2, FGFR3 (V555M) (Homo sapiens, UniProt P22607, V555M).
T2 construct: made in house; host or cells: E. coli (BL21-derived), T7 phage
The description is as above. Particulars: for Kd: V555M mutant, read-out: FGFR3 (V555M) (Kd nM). An outline of the steps: as §2

Another assay deals with T3, FGFR1 (Homo sapiens, UniProt P11362).
T3 construct: made in house; host or cells: E. coli (BL21-derived), T7 phage
T3 sequence (P11362 22-822): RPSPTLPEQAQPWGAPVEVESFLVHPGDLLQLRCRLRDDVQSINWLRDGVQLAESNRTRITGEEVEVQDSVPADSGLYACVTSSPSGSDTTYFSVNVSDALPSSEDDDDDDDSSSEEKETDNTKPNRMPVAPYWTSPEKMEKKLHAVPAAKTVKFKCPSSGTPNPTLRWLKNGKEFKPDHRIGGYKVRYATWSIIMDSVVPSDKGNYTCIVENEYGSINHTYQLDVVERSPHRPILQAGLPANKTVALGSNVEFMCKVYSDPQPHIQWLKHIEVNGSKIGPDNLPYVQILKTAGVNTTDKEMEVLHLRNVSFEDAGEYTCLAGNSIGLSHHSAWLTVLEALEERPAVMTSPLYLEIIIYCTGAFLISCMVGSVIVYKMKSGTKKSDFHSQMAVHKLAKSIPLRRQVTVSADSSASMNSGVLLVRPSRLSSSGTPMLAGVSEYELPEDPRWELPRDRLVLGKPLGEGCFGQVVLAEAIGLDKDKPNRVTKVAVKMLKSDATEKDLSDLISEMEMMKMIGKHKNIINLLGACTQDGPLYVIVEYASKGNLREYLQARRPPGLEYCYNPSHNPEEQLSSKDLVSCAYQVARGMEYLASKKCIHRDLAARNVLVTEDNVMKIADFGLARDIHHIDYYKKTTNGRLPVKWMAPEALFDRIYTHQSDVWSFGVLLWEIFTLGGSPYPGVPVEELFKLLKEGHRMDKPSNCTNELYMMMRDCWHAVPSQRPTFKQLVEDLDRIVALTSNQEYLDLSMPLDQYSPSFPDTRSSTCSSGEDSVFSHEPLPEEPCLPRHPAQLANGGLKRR
The description is as above. Particulars: for Kd: read-out: FGFR1 (Kd nM). Summed up: as §2

The target of another assay is T4, FGFR2 (Homo sapiens, UniProt P21802).
T4 construct: made in house; host or cells: E. coli (BL21-derived), T7 phage
T4 sequence (P21802 22-821): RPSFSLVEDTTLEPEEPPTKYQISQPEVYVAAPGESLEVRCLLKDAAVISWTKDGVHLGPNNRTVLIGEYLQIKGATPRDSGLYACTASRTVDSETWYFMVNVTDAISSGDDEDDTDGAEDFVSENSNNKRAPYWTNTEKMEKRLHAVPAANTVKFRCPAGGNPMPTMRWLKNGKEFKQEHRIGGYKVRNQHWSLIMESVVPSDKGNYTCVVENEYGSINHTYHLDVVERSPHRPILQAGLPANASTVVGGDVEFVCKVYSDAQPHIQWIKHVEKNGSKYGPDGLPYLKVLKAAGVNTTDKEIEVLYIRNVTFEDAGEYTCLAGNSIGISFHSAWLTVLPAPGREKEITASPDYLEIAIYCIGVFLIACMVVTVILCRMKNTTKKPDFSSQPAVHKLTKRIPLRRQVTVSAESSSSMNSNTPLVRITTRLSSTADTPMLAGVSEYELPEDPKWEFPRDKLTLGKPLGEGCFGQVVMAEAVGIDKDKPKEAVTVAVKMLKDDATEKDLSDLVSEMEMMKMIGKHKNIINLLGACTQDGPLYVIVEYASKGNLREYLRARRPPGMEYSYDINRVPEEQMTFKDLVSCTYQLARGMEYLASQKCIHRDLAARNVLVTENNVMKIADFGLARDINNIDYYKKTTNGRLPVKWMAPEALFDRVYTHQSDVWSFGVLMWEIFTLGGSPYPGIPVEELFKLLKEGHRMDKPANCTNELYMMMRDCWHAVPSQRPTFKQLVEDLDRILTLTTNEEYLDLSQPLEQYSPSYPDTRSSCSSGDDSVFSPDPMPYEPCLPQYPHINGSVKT
Described as above. Summed up: as §2

The target of a further assay is T5, FGFR4 (Homo sapiens, UniProt P22455).
T5 construct: made in house; host or cells: E. coli (BL21-derived), T7 phage
T5 sequence (P22455 22-802): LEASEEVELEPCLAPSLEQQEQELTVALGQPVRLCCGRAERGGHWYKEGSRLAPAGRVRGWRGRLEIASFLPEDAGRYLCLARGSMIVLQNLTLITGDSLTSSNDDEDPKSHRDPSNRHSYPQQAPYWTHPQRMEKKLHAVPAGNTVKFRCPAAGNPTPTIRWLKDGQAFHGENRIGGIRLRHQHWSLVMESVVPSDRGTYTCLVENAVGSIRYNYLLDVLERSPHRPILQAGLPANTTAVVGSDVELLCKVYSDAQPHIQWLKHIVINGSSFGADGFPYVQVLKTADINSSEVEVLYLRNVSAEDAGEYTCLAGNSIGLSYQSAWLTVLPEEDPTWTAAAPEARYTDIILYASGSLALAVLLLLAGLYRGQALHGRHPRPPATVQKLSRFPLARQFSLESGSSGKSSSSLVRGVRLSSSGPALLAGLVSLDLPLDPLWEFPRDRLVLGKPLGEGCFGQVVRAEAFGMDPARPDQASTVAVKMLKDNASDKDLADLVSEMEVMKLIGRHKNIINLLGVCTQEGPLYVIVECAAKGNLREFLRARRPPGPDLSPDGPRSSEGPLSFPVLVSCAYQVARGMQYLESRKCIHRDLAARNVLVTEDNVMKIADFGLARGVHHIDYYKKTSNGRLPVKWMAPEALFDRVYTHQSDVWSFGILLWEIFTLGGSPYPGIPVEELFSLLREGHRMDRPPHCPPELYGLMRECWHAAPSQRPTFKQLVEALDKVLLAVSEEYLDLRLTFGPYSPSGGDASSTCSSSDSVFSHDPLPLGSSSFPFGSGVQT
Described as above. Particulars: for Kd: read-out: FGFR4 (Kd nM). Summed up: as §2

[4] abbreviates: KG-1, KG-1 cell line (FGFR1-fusion).
The mark [5] stands for this setting: RT112/84, RT112/84 cell line (FGFR3-fusion).

pIC50, pKd: −log10 of the molar value. Where two headings read alike, the source gives them in different places.

T2 sequence (P22607 23-806 V555M): as the sequence (P22607 23-806) above, with V533M counted along it

As to `C[C@@H](Oc1ccc2[nH]nc(-c3cnc(N4CC(C)(CN5CCOCC5)C4)c(F)c3)c2c1)c1c(Cl)cncc1Cl` [Example 109, (R)-4-((1-(5-(5-(1-(3,5-dichloropyridin-4-yl)ethoxy)-1H-indazol-3-yl)-3-fluoropyridin-2-yl)-3-methylazetidin-3-yl)methyl)morpholine], the pIC50 in assay [1] (setting [4]) is 6.70 to 7.30; in assay [2] (setting [5]), 7.30 to 10.00; in assay [3] (KATO III), 6.70 to 7.30. The Kd on FGFR3, at FGFR3 (V555M), at FGFR1, at FGFR2 (read-out: FGFR2 (Kd nM)) and on FGFR4 was 1 to 50 nM in each case.
`C[C@@H](Oc1ccc2[nH]nc(-c3ccc(N4CC(C)(CN(C)S(C)(=O)=O)C4)nc3)c2c1)c1c(Cl)cncc1Cl` [Example 74, (R)-N-((1-(5-(5-(1-(3,5-dichloropyridin-4-yl)ethoxy)-1H-indazol-3-yl)pyridin-2-yl)-3-methylazetidin-3-yl)methyl)-N-methylmethanesulfona-mide]: the values for the pIC50 in assay [1] (setting [4]), in assay [2] (setting [5]) and in assay [3] (KATO III) were 6.70 to 7.30, 7.30 to 10.00 and 7.30 to 10.00, respectively. For the same compound, the Kd on FGFR3, at FGFR3 (V555M), on FGFR1, on FGFR2 (read-out: FGFR2 (Kd nM)) and on FGFR4 was 1 to 50 nM in each case.
Consider `Cc1ncc(Cl)c([C@@H](C)Oc2ccc3[nH]nc(-c4cnc(N5CC(C)(NCC6CC6)C5)c(F)c4)c3c2)c1Cl` [Example 209, N-(cyclo-propylmethyl)-1-[5-[5-[(1R)-1-(3,5-dichloro-2-methyl-4-pyridyl)ethoxy]-1H-indazol-3-yl]-3-fluoro-2-pyridyl]-3-methyl-azetidin-3-amine], for which the negative-log IC50 (pIC50) in assay [1] (setting [4]), in assay [2] (setting [5]) and in assay [3] (KATO III) was 6.70 to 7.30 in each case. Further, the Kd on FGFR3, on FGFR3 (V555M), on FGFR1, at FGFR2 (read-out: FGFR2 (Kd nM)) and at FGFR4 was 1 to 50 nM each time.
Regarding `C[C@@H](Oc1ccc2[nH]nc(-c3ccc(N4CC(C)(NC5CCC5)C4)nc3)c2c1)c1c(Cl)cncc1Cl` [Example 63, (R)-N-cyclobutyl-1-(5-(5-(1-(3,5-dichloropyridin-4-yl)ethoxy)-1H-indazol-3-yl)pyridin-2-yl)-3-methylazetidin-3-amine], the pIC50 in assay [1] (setting [4]) was 6.70 to 7.30; in assay [2] (setting [5]), 7.30 to 10.00; in assay [3] (KATO III), 7.30 to 10.00. For the same compound, the Kd on FGFR3, at FGFR3 (V555M), on FGFR1, on FGFR2 (read-out: FGFR2 (Kd nM)) and at FGFR4 was 1 to 50 nM in each case.
`C[C@@H](Oc1ccc2[nH]nc(-c3cnc(N4CC(C)(N5CCC5)C4)c(F)c3)c2c1)c1c(Cl)cncc1Cl` [Example 103, (R)-5-(1-(3,5-dichloropyridin-4-yl)ethoxy)-3-(5-fluoro-6-(3′-methyl-[1,3′-biazetidin]-1′-yl)pyridin-3-yl)-1H-indazole]: the pIC50 in assay [1] (setting [4]), in assay [2] (setting [5]) and in assay [3] (KATO III) was 7.30 to 10.00 in each case. Moreover, the Kd on FGFR3, at FGFR3 (V555M), on FGFR1, at FGFR2 (read-out: FGFR2 (Kd nM)) and at FGFR4 was 1 to 50 nM throughout.
Consider `C[C@@H](Oc1ccc2[nH]nc(-c3ccc(N4CC(C)(OCC(C)(C)O)C4)nc3)c2c1)c1c(Cl)cncc1Cl` [Example 93, (R)-1-((1-(5-(5-(1-(3,5-dichloropyridin-4-yl)ethoxy)-1H-indazol-3-yl)pyridin-2-yl)-3-methylazetidin-3-yl)oxy)-2-methylpropan-2-ol], for which the pIC50 in assay [1] (setting [4]) is 6.70 to 7.30; in assay [2] (setting [5]) it was 7.30 to 10.00; in assay [3] (KATO III), 7.30 to 10.00. For the same compound, the Kd on FGFR3, on FGFR3 (V555M), on FGFR1, at FGFR2 (read-out: FGFR2 (Kd nM)) and at FGFR4 was 1 to 50 nM in each case.
`C[C@@H](Oc1cc2c(-c3cnc(N4CC(C)(N5CCOCC5)C4)c(F)c3)n[nH]c2cc1F)c1c(Cl)cncc1Cl` [Example 158, (R)-4-(1-(5-(5-(1-(3,5-Dichloropyridin-4-yl)ethoxy)-6-fluoro-1H-indazol-3-yl)-3-fluoropyridin-2-yl)-3-methylazetidin-3-yl)morpholine]: the pIC50 is 6.70 to 7.30 in assay [1] (setting [4]), 7.30 to 10.00 in assay [2] (setting [5]) and 7.30 to 10.00 in assay [3] (KATO III). The Kd on FGFR3, at FGFR3 (V555M), at FGFR1, on FGFR2 (read-out: FGFR2 (Kd nM)) and on FGFR4 was 1 to 50 nM in each case.
Turning to `C=CCNC1(C)CN(c2ccc(-c3n[nH]c4ccc(O[C@H](C)c5c(Cl)cncc5Cl)cc34)cn2)C1` [Example 232, (R)-N-ally1-1-(5-(5-(1-(3,5-dichloropyridin-4-yl)ethoxy)-1H-indazol-3-yl)pyridin-2-yl)-3-methylazetidin-3-amine], the pIC50 in assay [1] (setting [4]) was 6.70 to 7.30; in assay [2] (setting [5]), 7.30 to 10.00; in assay [3] (KATO III), 7.30 to 10.00. Also, the Kd on FGFR3, at FGFR3 (V555M), at FGFR1, at FGFR2 (read-out: FGFR2 (Kd nM)) and at FGFR4 was 1 to 50 nM in each case.
Regarding `C[C@@H](Oc1ccc2[nH]nc(-c3cnc(N4CC(C)(NCC5(O)CC5)C4)c(F)c3)c2c1)c1c(Cl)cncc1Cl` [Example 118, (R)-1-(((1-(5-(5-(1-(3,5-dichloropyridin-4-yl)ethoxy)-1H-indazol-3-yl)-3-fluoropyridin-2-yl)-3-methylazetidin-3-yl)amino)methyl)cyclo-propan-1-ol], the pIC50 in assay [1] (setting [4]), in assay [2] (setting [5]) and in assay [3] (KATO III) was 7.30 to 10.00 each time. Also, the Kd on FGFR3, at FGFR3 (V555M), at FGFR1, on FGFR2 (read-out: FGFR2 (Kd nM)) and at FGFR4 was 1 to 50 nM in each case.
Turning to `C[C@@H](Oc1ccc2[nH]nc(-c3cnc(N4CC(C)(CN5CCCC5)C4)c(F)c3)c2c1)c1c(Cl)cncc1Cl` [Example 110, (R)-5-(1-(3,5-dichloropyridin-4-yl)ethoxy)-3-(5-fluoro-6-(3-methyl-3-(pyrrolidin-1-ylmethyl)azetidin-1-yl)pyridin-3-yl)-1H-indazole], the pIC50 in assay [1] (setting [4]), in assay [2] (setting [5]) and in assay [3] (KATO III) was 7.30 to 10.00 in each case. Also, the Kd at FGFR3, on FGFR3 (V555M), at FGFR1, on FGFR2 (read-out: FGFR2 (Kd nM)) and on FGFR4 was 1 to 50 nM in each case.
As for `COc1cc2[nH]nc(-c3cnc(N4CC(C)(NCC5(O)CC5)C4)c(F)c3)c2cc1O[C@H](C)c1c(Cl)cncc1Cl` [Example 119, (R)-1-(((1-(5-(5-(1-(3,5-dichloropyridin-4-yl)ethoxy)-6-methoxy-1H-indazol-3-yl)-3-fluoropyridin-2-yl)-3-methylazetidin-3-yl)amino)methyl)cyclo-propan-1-ol], the pIC50 in assay [1] (setting [4]), in assay [2] (setting [5]) and in assay [3] (KATO III) was 7.30 to 10.00 each time. Also, the Kd on FGFR3, at FGFR3 (V555M), on FGFR1, on FGFR2 (read-out: FGFR2 (Kd nM)) and on FGFR4 was 1 to 50 nM each time.
Take `COP(=O)(CC1(C)CN(c2ncc(-c3n[nH]c4ccc(O[C@H](C)c5c(Cl)cncc5Cl)cc34)cc2F)C1)OC` [Example 215, (R)-dimethyl ((1-(5-(5-(1-(3,5-dichloropyridin-4-yl)ethoxy)-1H-indazol-3-yl)-3-fluoropyridin-2-yl)-3-methylazetidin-3-yl)methyl)phos-phonate]: the pIC50 was 6.70 to 7.30 in assay [1] (KG-1 cell line (FGFR1-fusion)), 7.30 to 10.00 in assay [2] (RT112/84 cell line (FGFR3-fusion)) and 6.70 to 7.30 in assay [3]. Moreover, the negative-log Kd (pKd) at FGFR3, on FGFR3 (V555M), at FGFR1 and on FGFR4 was 7.30 to 9.00 throughout. The Kd at FGFR2 (FGFR2 (Kd nM)) was 1 to 50 nM.
In the case of `C[C@@H](Oc1ccc2[nH]nc(-c3cnc(N4CC(C)(N5C[C@H]6C[C@@H]5CO6)C4)c(F)c3)c2c1)c1c(Cl)cncc1Cl` [Example 223, (1R,4R)-5-(1-(5-(5-((R)-1-(3,5-dichloropyridin-4-yl)ethoxy)-1H-indazol-3-yl)-3-fluoropyridin-2-yl)-3-methylazetidin-3-yl)-2-oxa-5-aza-bicyclo[2.2.1]hep-tane], the pIC50 in assay [1] (setting [4]) was 6.70 to 7.30; in assay [2] (setting [5]) it was 7.30 to 10.00; in assay [3] (KATO III), 7.30 to 10.00. The Kd at FGFR3, on FGFR3 (V555M), on FGFR1, at FGFR2 (read-out: FGFR2 (Kd nM)) and on FGFR4 was 1 to 50 nM each time.
